Laboratory results as given in patent publication US10039759B2, “Quinolines as FGFR kinase modulators” (priority 2011, dated 2018).
Counter-ions that a name gives are not always drawn.

Key:
[1] = target: T1, Ba/F3-FGFR1-transfected cells (Homo sapiens, UniProt P11362, cells depend on it, form not given); experiment: Ba/F3-FGFR1 (minus IL3 or plus IL3) cellular proliferation assay, Alamar Blue; assay type: cell-based; conditions: minus IL3, 24 hours
T1 construct: other: minus IL3; 24 hours, Alamar Blue
T1 sequence (P11362 whole entry, change not shown): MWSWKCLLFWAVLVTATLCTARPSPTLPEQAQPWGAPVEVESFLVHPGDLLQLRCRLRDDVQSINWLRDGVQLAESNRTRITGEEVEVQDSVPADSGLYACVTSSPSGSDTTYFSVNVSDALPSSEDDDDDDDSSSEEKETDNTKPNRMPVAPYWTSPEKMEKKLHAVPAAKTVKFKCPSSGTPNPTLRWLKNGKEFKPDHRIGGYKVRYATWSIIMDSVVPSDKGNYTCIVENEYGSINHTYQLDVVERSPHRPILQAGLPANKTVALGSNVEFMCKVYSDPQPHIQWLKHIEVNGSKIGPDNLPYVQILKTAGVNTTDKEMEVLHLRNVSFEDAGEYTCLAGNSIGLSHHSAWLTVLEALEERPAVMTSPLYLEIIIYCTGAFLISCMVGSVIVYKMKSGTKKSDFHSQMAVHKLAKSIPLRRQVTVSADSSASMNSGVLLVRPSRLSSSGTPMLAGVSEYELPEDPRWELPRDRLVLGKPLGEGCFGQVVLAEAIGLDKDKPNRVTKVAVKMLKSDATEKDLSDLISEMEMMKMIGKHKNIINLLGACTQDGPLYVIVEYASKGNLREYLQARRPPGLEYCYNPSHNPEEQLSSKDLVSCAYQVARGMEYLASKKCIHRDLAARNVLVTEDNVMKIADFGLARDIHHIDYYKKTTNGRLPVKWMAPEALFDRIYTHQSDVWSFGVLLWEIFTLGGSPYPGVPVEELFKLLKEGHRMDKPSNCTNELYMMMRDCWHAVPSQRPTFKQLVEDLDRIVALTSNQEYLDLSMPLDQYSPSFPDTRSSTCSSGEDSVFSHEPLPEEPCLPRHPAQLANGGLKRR
Experimental: Ba/F3-FGFR1 (Minus IL3 or Plus IL3) (Cellular Proliferation Assay)
(§1) In a 384 well plate, 100 nl of compound dilution in DMSO was sprayed before adding 50 μl cell culture medium (phenol red free RPMI-1640, 10% FBS, 2 mM L-Glutamine and 50 μg/ml Gentamycin) containing 20000 cells per well of Ba/F3-FGFR1-transfected cells. Cells were put in an incubator at 37° C. and 5% CO2. After 24 hours, 10 μl of Alamar Blue solution (0.5 mM K3Fe(CN)6, 0.5 mM K4Fe(CN)6, 0.15 mM Resazurin and 100 mM Phosphate Buffer) was added to the wells, incubated for 4 hours at 37° C. and 5% CO2 before RFU's (Relative Fluorescence Units) (ex. 540 nm., em. 590 nm.) were measured in a fluorescence plate reader.
(§2) In this assay, the inhibitory effect of different compound concentrations (range 10 μM to 0.1 nM) was determined and used to calculate an IC50 (M) and pIC50 (−log IC50) value. As a counterscreen the same experiment was performed in the presence of 10 ng/ml murine IL3.

FGFR3 (h) = FGFR3 (h) (Homo sapiens, UniProt P22607); experiment: FGFR3 (enzymatic assay), TR-FRET; assay type: biochemical; conditions: 25 μM ATP, 60 min; pIC50 = -log IC50 (M); average if tested multiple times; read-out: hFGFR 3 pIC50 (converted)
Sequence of FGFR3 (h) (P22607 23-806): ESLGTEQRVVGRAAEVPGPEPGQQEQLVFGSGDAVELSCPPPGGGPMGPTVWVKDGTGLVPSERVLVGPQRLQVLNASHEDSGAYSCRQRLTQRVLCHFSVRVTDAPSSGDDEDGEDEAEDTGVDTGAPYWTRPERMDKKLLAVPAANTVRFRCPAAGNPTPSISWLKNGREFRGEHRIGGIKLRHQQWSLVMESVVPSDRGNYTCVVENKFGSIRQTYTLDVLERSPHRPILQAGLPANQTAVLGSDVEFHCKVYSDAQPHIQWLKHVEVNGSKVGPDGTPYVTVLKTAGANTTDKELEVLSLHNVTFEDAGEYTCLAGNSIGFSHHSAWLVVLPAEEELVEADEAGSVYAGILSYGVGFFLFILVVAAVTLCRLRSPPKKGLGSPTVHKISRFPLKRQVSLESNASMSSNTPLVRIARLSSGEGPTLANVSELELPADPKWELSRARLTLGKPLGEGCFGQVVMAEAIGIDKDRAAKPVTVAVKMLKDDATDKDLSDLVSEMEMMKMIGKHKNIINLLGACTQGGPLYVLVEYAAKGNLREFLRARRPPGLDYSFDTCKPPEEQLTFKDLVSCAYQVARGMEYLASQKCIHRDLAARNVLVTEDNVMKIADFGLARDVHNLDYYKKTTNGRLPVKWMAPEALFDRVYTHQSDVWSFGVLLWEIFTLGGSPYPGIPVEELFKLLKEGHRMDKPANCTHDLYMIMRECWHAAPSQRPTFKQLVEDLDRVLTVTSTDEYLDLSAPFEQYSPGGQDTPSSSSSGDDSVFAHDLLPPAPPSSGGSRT

[2] = target: Ba/F3-FGFR4-transfected cells (Homo sapiens, UniProt P22455); experiment: Ba/F3-FGFR4 cellular proliferation assay, Alamar Blue; assay type: cell-based; conditions: 24 hours
Sequence of Ba/F3-FGFR4-transfected cells (P22455 whole entry, change not shown): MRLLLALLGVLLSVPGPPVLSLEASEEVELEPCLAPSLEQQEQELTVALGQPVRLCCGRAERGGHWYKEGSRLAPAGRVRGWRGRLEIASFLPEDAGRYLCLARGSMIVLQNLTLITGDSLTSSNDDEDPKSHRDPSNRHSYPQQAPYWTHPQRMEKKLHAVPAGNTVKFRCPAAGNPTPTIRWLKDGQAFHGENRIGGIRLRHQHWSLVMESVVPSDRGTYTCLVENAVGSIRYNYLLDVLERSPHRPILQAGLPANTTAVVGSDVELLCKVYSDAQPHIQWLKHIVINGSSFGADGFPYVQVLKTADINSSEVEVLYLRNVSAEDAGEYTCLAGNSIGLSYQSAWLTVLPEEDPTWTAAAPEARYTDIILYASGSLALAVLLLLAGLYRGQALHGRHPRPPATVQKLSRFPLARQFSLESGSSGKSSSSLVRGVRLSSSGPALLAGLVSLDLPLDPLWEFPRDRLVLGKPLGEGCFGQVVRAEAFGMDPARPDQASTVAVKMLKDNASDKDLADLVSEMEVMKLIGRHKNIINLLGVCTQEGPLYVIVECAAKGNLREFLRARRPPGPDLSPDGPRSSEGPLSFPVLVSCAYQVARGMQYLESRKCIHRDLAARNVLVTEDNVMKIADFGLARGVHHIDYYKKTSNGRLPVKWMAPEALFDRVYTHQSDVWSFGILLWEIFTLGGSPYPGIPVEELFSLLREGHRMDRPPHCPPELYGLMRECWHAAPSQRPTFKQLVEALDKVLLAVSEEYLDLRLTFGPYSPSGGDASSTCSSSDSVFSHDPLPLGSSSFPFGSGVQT
Experimental: Ba/F3-FGFR4 (Cellular Proliferation Assay)
as §1, with “Ba/F3-FGFR4-transfected” for “Ba/F3-FGFR1-transfected”
In this assay, the inhibitory effect of different compound concentrations (range 10 μM to 0.1 nM) was determined and used to calculate an IC50 (M) and pIC50 (−log IC50) value.

[3] = target: T2, Ba/F3-KDR-transfected cells (Homo sapiens, UniProt P35968, cells depend on it, form not given); experiment: Ba/F3-KDR (minus IL3 or plus IL3) cellular proliferation assay, Alamar Blue; assay type: cell-based; conditions: minus IL3; 24 hours, Alamar Blue
T2 construct: BAF3-KDR (MIN IL3 Alamar Blue pIC50); other: minus IL3; 24 hours, Alamar Blue
T2 sequence (P35968 whole entry, change not shown): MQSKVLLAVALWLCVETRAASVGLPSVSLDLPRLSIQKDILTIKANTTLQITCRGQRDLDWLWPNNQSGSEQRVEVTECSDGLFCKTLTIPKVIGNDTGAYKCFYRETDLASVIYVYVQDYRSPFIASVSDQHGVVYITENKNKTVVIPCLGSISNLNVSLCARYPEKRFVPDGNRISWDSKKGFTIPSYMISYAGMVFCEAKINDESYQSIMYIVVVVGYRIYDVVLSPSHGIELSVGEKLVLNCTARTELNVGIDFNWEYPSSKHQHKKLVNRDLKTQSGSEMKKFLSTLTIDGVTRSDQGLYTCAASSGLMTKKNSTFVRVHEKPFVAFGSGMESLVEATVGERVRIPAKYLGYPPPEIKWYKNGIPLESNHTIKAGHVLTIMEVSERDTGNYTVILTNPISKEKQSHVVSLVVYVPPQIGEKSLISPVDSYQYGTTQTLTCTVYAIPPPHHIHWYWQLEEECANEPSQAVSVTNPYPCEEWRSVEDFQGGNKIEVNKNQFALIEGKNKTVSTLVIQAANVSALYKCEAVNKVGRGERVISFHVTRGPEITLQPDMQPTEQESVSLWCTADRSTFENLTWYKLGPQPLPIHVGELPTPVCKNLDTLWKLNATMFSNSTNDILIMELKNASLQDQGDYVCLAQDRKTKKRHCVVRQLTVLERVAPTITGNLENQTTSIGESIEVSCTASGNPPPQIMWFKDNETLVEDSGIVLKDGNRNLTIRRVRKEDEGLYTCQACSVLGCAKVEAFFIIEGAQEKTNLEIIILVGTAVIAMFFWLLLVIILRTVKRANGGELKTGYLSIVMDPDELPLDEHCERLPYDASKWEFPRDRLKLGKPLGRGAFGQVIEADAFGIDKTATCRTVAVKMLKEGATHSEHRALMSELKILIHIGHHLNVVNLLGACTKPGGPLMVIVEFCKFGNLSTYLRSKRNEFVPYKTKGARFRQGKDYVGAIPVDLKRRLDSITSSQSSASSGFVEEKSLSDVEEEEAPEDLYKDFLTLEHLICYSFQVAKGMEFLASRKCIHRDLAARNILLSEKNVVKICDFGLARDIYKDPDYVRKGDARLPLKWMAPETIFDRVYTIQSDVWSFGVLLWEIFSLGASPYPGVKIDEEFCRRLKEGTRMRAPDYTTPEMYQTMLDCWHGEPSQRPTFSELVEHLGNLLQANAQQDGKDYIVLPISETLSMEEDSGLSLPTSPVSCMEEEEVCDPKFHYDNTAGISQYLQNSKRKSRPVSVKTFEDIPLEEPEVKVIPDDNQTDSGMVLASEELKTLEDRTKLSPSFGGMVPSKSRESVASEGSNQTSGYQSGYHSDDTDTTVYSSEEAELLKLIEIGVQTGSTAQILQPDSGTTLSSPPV
Experimental: (§3) Ba/F3-KDR (Minus IL3 or Plus IL3) (Cellular Proliferation Assay)
as §1, with “Ba/F3-KDR-transfected” for “Ba/F3-FGFR1-transfected”
as §2

[4] = target: T3, Ba/F3-FGFR3-transfected cells (Homo sapiens, UniProt P22607, cells depend on it, form not given); experiment: Ba/F3-FGFR3 (minus IL3 or plus IL3) cellular proliferation assay, Alamar Blue; assay type: cell-based; conditions: minus IL3; 24 hours, Alamar Blue
T3 construct: BAF3-FGFR3 (MIN IL3 Alamar Blue- pIC50); other: minus IL3; 24 hours, Alamar Blue
Experimental: (§4) Ba/F3-FGFR3 (Minus IL3 or Plus IL3) (Cellular Proliferation Assay)
as §1, with “Ba/F3-FGFR3-transfected” for “Ba/F3-FGFR1-transfected”
as §2

KDR (h) = KDR (h) (Homo sapiens, UniProt P35968); experiment: KDR (VEGFR2) (enzymatic assay), TR-FRET; assay type: biochemical; conditions: 3 μM ATP, 120 min; pIC50 = -log IC50 (M); average if tested multiple times; read-out: VEGFR KDR pIC50 (converted)
Experimental: KDR (VEGFR2) (Enzymatic Assay)
In a final reaction volume of 30 μL, KDR (h) (150 ng/ml) was incubated with 50 mM HEPES pH 7.5, 6 mM MnCl2, 1 mM DTT, 0.1 mM Na3VO4, 0.01% Triton-X-100, 500 nM Btn-Flt3 and 3 μM ATP in the presence of compound (1% DMSO final). After incubation for 120 minutes at room temperature the reaction was stopped with 2.27 nM EU-anti P-Tyr, 7 mM EDTA, 31.25 nM SA-XL-665 and 0.02% BSA which was present for 60 minutes at room temperature. Time-Resolved Fluorescence Resonance Energy Transfer (TR-FRET) signal (ex340 nm. Em 620 nm, em 655 nm) was measured afterwards and results are expressed in RFU (Relative Fluorescence Units). In this assay, the inhibitory effect of different compound concentrations (range 10 μM to 0.1 nM) was determined and used to calculate an IC50 (M) and pIC50 (−log IC50) value.

FGFR2 (h) = FGFR2 (h) (Homo sapiens, UniProt P21802); experiment: FGFR2 (enzymatic assay), TR-FRET; assay type: biochemical; conditions: 0.4 μM ATP, 60 min; pIC50 = -log IC50 (M); average if tested multiple times; read-out: FGFR 2 pIC50 (converted)
Sequence of FGFR2 (h) (P21802 22-821): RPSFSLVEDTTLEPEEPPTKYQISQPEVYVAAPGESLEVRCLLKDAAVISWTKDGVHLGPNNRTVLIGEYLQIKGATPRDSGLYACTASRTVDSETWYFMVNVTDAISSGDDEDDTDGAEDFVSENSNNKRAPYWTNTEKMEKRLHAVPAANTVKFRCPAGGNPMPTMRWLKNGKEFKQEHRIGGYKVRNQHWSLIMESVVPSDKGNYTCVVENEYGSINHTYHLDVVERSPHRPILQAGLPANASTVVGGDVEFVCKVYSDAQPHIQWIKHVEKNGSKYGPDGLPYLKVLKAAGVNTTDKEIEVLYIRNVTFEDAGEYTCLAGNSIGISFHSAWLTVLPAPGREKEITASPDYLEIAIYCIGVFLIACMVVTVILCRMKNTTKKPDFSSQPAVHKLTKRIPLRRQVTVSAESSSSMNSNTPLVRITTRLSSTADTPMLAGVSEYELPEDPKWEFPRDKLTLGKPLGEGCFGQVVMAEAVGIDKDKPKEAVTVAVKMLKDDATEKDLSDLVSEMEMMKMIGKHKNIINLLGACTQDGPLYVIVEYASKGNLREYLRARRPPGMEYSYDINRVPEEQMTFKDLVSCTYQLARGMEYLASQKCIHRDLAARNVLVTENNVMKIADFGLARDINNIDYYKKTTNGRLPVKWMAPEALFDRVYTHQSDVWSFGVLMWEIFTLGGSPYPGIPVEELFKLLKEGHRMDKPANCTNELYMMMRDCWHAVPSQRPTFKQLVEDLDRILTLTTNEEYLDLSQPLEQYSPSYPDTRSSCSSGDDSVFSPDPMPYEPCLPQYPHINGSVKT

[5] = test system: Ba/F3-KDR-transfected cells; experiment: Ba/F3-KDR (minus IL3 or plus IL3) cellular proliferation assay, Alamar Blue; assay type: cell-based; conditions: plus IL3 (10 ng/ml murine IL3, counterscreen); 24 hours, Alamar Blue; read-out: BAF3-KDR (PLUS IL3 Alamar Blue pIC50) (converted)
Experimental: as §3
as §1, with “Ba/F3-KDR-transfected” for “Ba/F3-FGFR1-transfected”
as §2

[6] = test system: Ba/F3-FGFR3-transfected cells; experiment: Ba/F3-FGFR3 (minus IL3 or plus IL3) cellular proliferation assay, Alamar Blue; assay type: cell-based; conditions: plus IL3 (10 ng/ml murine IL3, counterscreen); 24 hours, Alamar Blue; read-out: BAF3-FGFR3 (PLUS IL3 Alamar Blue pIC50) (converted)
Experimental: as §4
as §1, with “Ba/F3-FGFR3-transfected” for “Ba/F3-FGFR1-transfected”
as §2

FGFR4 (h) = FGFR4 (h) (Homo sapiens, UniProt P22455); experiment: FGFR4 (enzymatic assay), TR-FRET; assay type: biochemical; conditions: FGFR 4 pIC50, 5 μM ATP, 60 min; pIC50 = -log IC50 (M); average if tested multiple times
FGFR1 (h) = FGFR1 (h) (Homo sapiens, UniProt P11362); experiment: FGFR1 (enzymatic assay), TR-FRET; assay type: biochemical; conditions: FGFR 1 pIC50, 5 μM ATP, 60 min; pIC50 = -log IC50 (M); average if tested multiple times

Row | Structure (SMILES) | melting point | BAF3-FGFR1 (MIN IL3 pIC50) [1] | IC50 (FGFR3 (h)) | BAF3-FGFR 4 (pIC50) [2] | BAF3-KDR (MIN IL3 Alamar Blue pIC50) [3] | BAF3-FGFR3 (MIN IL3 Alamar Blue- pIC50) [4] | IC50 (KDR (h)) | IC50 (FGFR2 (h)) | IC50 [5] | IC50 [6] | IC50 (FGFR4 (h)) | IC50 (FGFR1 (h))
1 | C#CCN(c1ccc2ncc(-c3cnn(C)c3)cc2c1)c1cc(OC)cc(OC)c1F | 120 °C | – | – | – | – | – | – | – | – | – | – | –
2 | COc1cc(OC)cc(N(CCCN2CCCC2=O)c2ccc3ncc(-c4cnn(C)c4)cc3c2)c1 (as salt: HCl) (hydrate or solvate) [Compound 10] | 142 °C | – | – | – | – | – | – | – | – | – | – | –
3 | COc1cc(OC)cc(N(CCNC(C)C)c2ccc3ncc(-c4cnn(CCO)c4)cc3c2)c1 (as salt: HCl) (hydrate or solvate) [Compound 13] | 86 to 115 °C | – | – | – | – | – | – | – | – | – | – | –
4 | COc1cc(OC)cc(C(CCNC(C)C)c2ccc3ncc(-c4cnn(C)c4)cc3c2)c1 (stereo not shown) (as salt: HCl) [Compound 41] | > 300 °C | – | – | – | – | – | – | – | – | – | – | –
5 | CNCCN(c1ccc2ncc(-c3cnn(C)c3)cc2c1)c1c(F)c(OC)cc(OC)c1F (as salt: HCl) [Compound 43] | 180 °C | – | – | – | – | – | – | – | – | – | – | –
6 | COc1cc(OC)cc(/C(=C/C#N)c2ccc3ncc(-c4cnn(C)c4)cc3c2)c1 [Compound 29] | 86 °C | 5.45 | 4.57e-08 M | <5 | 5.15 | 5.29 | 5.62e-07 M | ~6.76e-08 M | – | – | – | –
7 | COc1cc(OC)cc(C(CCO)c2ccc3ncc(-c4cnn(C)c4)cc3c2)c1 (stereo not shown) [Compound 34] | 131 °C | 5.01 | 2.14e-08 M | <5 | <5 | 5.16 | > 1e-06 M | 1.86e-07 M | > 10 µM | > 10 µM | 4.17e-07 M | –
8 | COc1cc(OC)cc(C(CC#N)c2ccc3ncc(-c4cnn(C)c4)cc3c2)c1 (stereo not shown) [Compound 39] | 172 °C | 5.09 | 1.78e-07 M | <5 | <5 | <5 | > 1e-06 M | 2.82e-07 M | > 10 µM | > 10 µM | > 1e-06 M | –
9 | COc1cc(OC)c(F)c(N(CCNC(C)C)c2ccc3ncc(-c4cnn(C)c4)cc3c2)c1F [Compound 42] | 75 °C | 8.95 | 3.39e-09 M | 8.25 | 6.95 | 8.25 | 1.58e-08 M | 3.16e-09 M | > 10 µM | > 10 µM | 2.88e-09 M | 1.15e-09 M
10 | COc1cc(OC)cc(N(CCO)c2ccc3ncc(-c4ccccc4)cc3c2)c1 [Compound 50] | 111 °C | 5.11 | 5.75e-08 M | <5 | <5 | 5.19 | > 1e-06 M | 5.5e-08 M | > 10 µM | > 10 µM | 2.57e-07 M | 6.92e-08 M
11 | COc1cc(OC)cc(N(Cc2ncc[nH]2)c2ccc3ncc(-c4ccccc4)cc3c2)c1 [Compound 52] | 133 °C | 5.77 | 8.51e-09 M | 5.48 | <5 | 6.00 | 9.33e-07 M | 6.61e-09 M | – | – | 1.66e-08 M | 1.58e-08 M
12 | COc1cc(OC)cc(N(CCO)c2ccc3ncc(N4CCOCC4)cc3c2)c1 [Compound 54] | – | <5 | 1.45e-07 M | <5 | <5 | 5.16 | > 1e-06 M | 1.82e-07 M | > 10 µM | > 10 µM | > 1e-06 M | 3.8e-07 M
13 | COc1cc(OC)cc(N(CCO)c2ccc3ncc(-c4ccn(C)c4)cc3c2)c1 [Compound 61] | 158 °C | 6.02 | 2.69e-09 M | 5.66 | 5.40 | 5.84 | 1.91e-07 M | ~1.26e-08 M | > 10 µM | > 10 µM | 2.09e-08 M | –
